Measurements published in patent publication US10245275B2 (ViiV HEALTHCARE UK (NO.4) LIMITED, priority 2014, dated 2019).
Read-outs that look alike come from different tables or passages of the source.

Tests used:
[1] = tested on: WT (wild-type HIV virus; recombinant NL4-3 virus); test: microbe, parasite or virus in culture; assay type: cell-based, HIV-1
In short: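 MT-2 cells infected 4-5 days with NL4-3 carrying Renilla luciferase in place of part of nef (Gag P373S), virus made by 293T transfection, with serial inhibitor dilutions. Antiviral activity read as luciferase activity by a modified dual-luciferase read-out.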

[2] = tested on: HIV-1 NL4-3 gag A364V virus; test: microbe, parasite or virus in culture; assay type: cell-based
In short: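 Recombinant NL4-3 reporter virus with Renilla luciferase replacing part of nef, made by transfection of 293T cells. MT-2 cells infected for 4-5 days with serial inhibitor dilutions; antiviral activity quantified by luciferase activity.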

[3] = Human immunodeficiency virus 1, NL43, MT2, read-out: WT (EC50, uM), Table 1 regular screen, class symbol
[4] = Human immunodeficiency virus 1, NL43, MT2, read-out: A364V (EC50, uM), Table 1 regular screen, class symbol
[5] = Human immunodeficiency virus 1, NL43, MT2, read-out: WT (EC50, uM), Table 1 regular screen, MT-2 cells, luciferase readout
[6] = Human immunodeficiency virus 1, NL43, MT2, read-out: A364V (EC50, uM), Table 1 regular screen, MT-2 cells, luciferase readout

| SMILES | EC50 [1, 3] | EC50 [2, 4] | EC50 [1, 5] | EC50 [2, 6] |
| --- | --- | --- | --- | --- |
| C=C(C)[C@@H]1CC[C@]2(NCC(=O)N3CCC(S(C)(=O)=O)C3)CC[C@]3(C)[C@H](CC[C@@H]4[C@@]5(C)CC=C(C6=CC[C@](CF)(C(=O)O)CC6)C(C)(C)[C@@H]5CC[C@]43C)[C@@H]12 (stereo partly drawn) [Example 36, (1S)-1-(fluoromethyl)-4-((1R,3aS,5aR,5bR,7aR,11aS,11bR,13aR,13bR)-5a,5b, 8,8,11a-pentamethyl-3a-((2-(3-(methylsulfonyl)pyrrolidin-1-yl)-2-oxoethyl)amino)-1-(prop-1-en-2-yl)-2,3,3a,4,5,5a,5b,6,7,7a,8,11,11a,11b,12,13,13a,13b-octadecahydro-1H-cyclopenta[a]chrysen-9-yl)cyclohex-3-enecarboxylic acid] | < 0.05 µM | > 0.05 µM | – | – |
| C=C(C)[C@@H]1CC[C@]2(NCCC3CCS(=O)(=O)CC3)CC[C@]3(C)[C@H](CC[C@@H]4[C@@]5(C)CC=C(C6=CC[C@](CF)(C(=O)O)CC6)C(C)(C)[C@@H]5CC[C@]43C)[C@@H]12 [Example 7, (S)-4-((1R,3aS,5aR,5bR,7aR,11aS,11bR,13aR,13bR)-3a-((2-(1,1-dioxidotetrahydro-2H-thiopyran-4-yl)ethyl)amino)-5a,5b,8,8,11a-pentamethyl-1-(prop-1-en-2-yl)-2,3,3a,4,5,5a,5b,6,7,7a,8,11,11a,11b,12,13,13a,13b-octadecahydro-1H-cyclopenta[a]chrysen-9-yl)-1-(fluoromethyl)cyclohex-3-enecarboxylic acid] | < 0.05 µM | > 0.05 µM | – | – |
| C=C(C)[C@@H]1CC[C@]2(NCCC3(O)COC3)CC[C@]3(C)[C@H](CC[C@@H]4[C@@]5(C)CC=C(C6=CC[C@](CF)(C(=O)O)CC6)C(C)(C)[C@@H]5CC[C@]43C)[C@@H]12 [Example 2-10, (S)-1-(fluoromethyl)-4-((1R,3aS,5aR,5bR,7aR,11aS,11bR,13aR,13bR)-3a-((2-(3-hydroxyoxetan-3-yl)ethyl)amino)-5a,5b, 8,8,11a-pentamethyl-1-(prop-1-en-2-yl)-2,3,3a,4,5,5a,5b,6,7,7a,8,11,11a,11b,12,13,13a,13b-octadecahydro-1H-cyclopenta[a]chrysen-9-yl)cyclohex-3-enecarboxylic acid] | < 0.05 µM | > 0.05 µM | – | – |
| C=C(C)[C@@H]1CC[C@]2(NCCC3(O)CCN(S(C)(=O)=O)CC3)CC[C@]3(C)[C@H](CC[C@@H]4[C@@]5(C)CC=C(C6=CC[C@](CF)(C(=O)O)CC6)C(C)(C)[C@@H]5CC[C@]43C)[C@@H]12 [Example 2-14, (S)-1-(fluoromethyl)-4-((1R,3aS,5aR,5bR,7aR,11aS,11bR,13aR,13bR)-3a-((2-(4-hydroxy-1-(methylsulfonyl)piperidin-4-yl)ethyl)amino)-5a,5b,8,8,11a-pentamethyl-1-(prop-1-en-2-yl)-2,3,3a,4,5,5a,5b,6,7,7a,8,11,11a,11b,12,13,13a,13b-octadecahydro-1H-cyclopenta[a]chrysen-9-yl)cyclohex-3-enecarboxylic acid] | – | – | 0.00256 µM | 0.0431 µM |
| C=C(C)[C@@H]1CC[C@]2(NCCCC(C)(C)O)CC[C@]3(C)[C@H](CC[C@@H]4[C@@]5(C)CC=C(C6=CC[C@](CF)(C(=O)O)CC6)C(C)(C)[C@@H]5CC[C@]43C)[C@@H]12 [Example 2-3, (S)-1-(fluoromethyl)-4-((1R,3aS,5aR,5bR,7aR,11aS,11bR,13aR,13bR)-3a-((4-hydroxy-4-methylpentyl)amino)-5a,5b,8,8,11a-pentamethyl-1-(prop-1-en-2-yl)-2,3,3a,4,5,5a,5b,6,7,7a,8,11,11a,11b,12,13,13a,13b-octadecahydro-1H-cyclopenta[a]chrysen-9-yl)cyclohex-3-enecarboxylic acid] | < 0.05 µM | > 0.05 µM | – | – |
| C=C(C)[C@@H]1CC[C@]2(CNCCCN3CCS(=O)(=O)CC3)CC[C@]3(C)[C@H](CC[C@@H]4[C@@]5(C)CC=C(C6=CC[C@@](CF)(C(=O)O)CC6)C(C)(C)[C@@H]5CC[C@]43C)[C@@H]12 [Example 11, (R)-4-((1R,3aS,5aR,5bR,7aR,11aS,11bR,13aR,13bR)-3a-(((3-(1,1-dioxidothiomorpholino)propyl)amino)methyl)-5a,5b, 8,8,11a-pentamethyl-1-(prop-1-en-2-yl)-2,3,3a,4,5,5a,5b,6,7,7a,8,11,11a,11b,12,13,13a,13b-octadecahydro-1H-cyclopenta[a]chrysen-9-yl)-1-(fluoromethyl)cyclohex-3-enecarboxylic acid] | < 0.05 µM | < 0.05 µM | – | – |
| C=C(C)[C@@H]1CC[C@]2(NCC[C@]3(O)CC[C@H](S(C)(=O)=O)CC3)CC[C@]3(C)[C@H](CC[C@@H]4[C@@]5(C)CC=C(C6=CC[C@](CF)(C(=O)O)CC6)C(C)(C)[C@@H]5CC[C@]43C)[C@@H]12 [Example 2-21, (S)-1-(fluoromethyl)-4-((1R,3aS,5aR,5bR,7aR,11aS,11bR,13aR,13bR)-3a-((2-((trans)-1-hydroxy-4-(methylsulfonyl)cyclohexyl)ethyl)amino)-5a,5b, 8,8,11a-pentamethyl-1-(prop-1-en-2-yl)-2,3,3a,4,5,5a,5b,6,7,7a,8,11,11a,11b,12,13,13a,13b-octadecahydro-1H-cyclopenta[a]chrysen-9-yl)cyclohex-3-enecarboxylic acid] | < 0.05 µM | > 0.05 µM | – | – |
| C=C(C)[C@@H]1CC[C@]2(NCCC3(O)CCOCC3)CC[C@]3(C)[C@H](CC[C@@H]4[C@@]5(C)CC=C(C6=CC[C@](CF)(C(=O)O)CC6)C(C)(C)[C@@H]5CC[C@]43C)[C@@H]12 [Example 2-12, (S)-1-(fluoromethyl)-4-((1R,3aS,5aR,5bR,7aR,11aS,11bR,13aR,13bR)-3a-((2-(4-hydroxytetrahydro-2H-pyran-4-yl)ethyl)amino)-5a,5b, 8,8,11a-pentamethyl-1-(prop-1-en-2-yl)-2,3,3a,4,5,5a,5b,6,7,7a,8,11,11a,11b,12,13,13a,13b-octadecahydro-1H-cyclopenta[a]chrysen-9-yl)cyclohex-3-enecarboxylic acid] | – | – | 0.00201 µM | 0.348 µM |
| C=C(C)[C@@H]1CC[C@]2(NCCN3CCC(C)(O)CC3)CC[C@]3(C)[C@H](CC[C@@H]4[C@@]5(C)CC=C(C6=CC[C@](CF)(C(=O)O)CC6)C(C)(C)[C@@H]5CC[C@]43C)[C@@H]12 [Example 2-23, (S)-1-(fluoromethyl)-4-((1R,3aS,5aR,5bR,7aR,11aS,11bR,13aR,13bR)-3a-((2-(4-hydroxy-4-methylpiperidin-1-yl)ethyl)amino)-5a,5b,8,8,11a-pentamethyl-1-(prop-1-en-2-yl)-2,3,3a,4,5,5a,5b,6,7,7a,8,11,11a,11b,12,13,13a,13b-octadecahydro-1H-cyclopenta[a]chrysen-9-yl)cyclohex-3-enecarboxylic acid] | – | – | 0.00121 µM | 0.0597 µM |
| C=C(C)[C@@H]1CC[C@]2(NCCN3CCC(C(=O)O)(C(=O)O)CC3)CC[C@]3(C)[C@H](CC[C@@H]4[C@@]5(C)CC=C(C6=CC[C@@](CF)(C(=O)O)CC6)C(C)(C)[C@@H]5CC[C@]43C)[C@@H]12 [Example 16, 1-(2-(((1R,3aS,5aR,5bR,7aR,11aS,11bR,13aR,13bR)-9-((R)-4-carboxy-4-(fluoromethyl)cyclohex-1-en-1-yl)-5a,5b,8,8,11a-pentamethyl-1-(prop-1-en-2-yl)-2,3,3a,4,5,5a,5b,6,7,7a,8,11,11a,11b,12,13,13a,13b-octadecahydro-1H-cyclopenta[a]chrysen-3a-yl)amino)ethyl)piperidine-4,4-dicarboxylic acid] | – | – | 0.43 µM | 3 µM |
| C=C(C)[C@@H]1CC[C@]2(NCC(=O)O)CC[C@]3(C)[C@H](CC[C@@H]4[C@@]5(C)CC=C(C6=CC[C@](CF)(C(=O)O)CC6)C(C)(C)[C@@H]5CC[C@]43C)[C@@H]12 [Example 28, (S)-4-((1R,3aS,5aR,5bR,7aR,11aS,11bR,13aR,13bR)-3a-((carboxymethyl)amino)-5a,5b, 8,8,11a-pentamethyl-1-(prop-1-en-2-yl)-2,3,3a,4,5,5a,5b,6,7,7a,8,11,11a,11b,12,13,13a,13b-octadecahydro-1H-cyclopenta[a]chrysen-9-yl)-1-(fluoromethyl)cyclohex-3-enecarboxylic acid] | > 0.05 µM | > 0.05 µM | – | – |
